Literature values, collected in patent publication US20090004290A1, “RED YEAST RICE COMPOUND FOR CANCER CHEMOPREVENTION” (priority 2007, published 2009).

What was measured:
lung cancer [1] = test system: lung cancer
[2] = test system: total, breast, colorectal, or other site-specific cancers; conditions: 100 mg alternate day, average 10 years of treatment, women
lung cancer [3] = conditions: interim analysis of over 3200 participants
lung cancer [4] = conditions: secondary endpoint; follow up of over 1300 participants; selenium supplementation

Compound: Cc1c(C)c2c(c(C)c1O)CC[C@@](C)(CCC[C@H](C)CCC[C@H](C)CCCC(C)C)O2 [Alpha-tocopherol]
- mortality due to hemorrhagic stroke (lung cancer [1]; participants that received Alpha-tocopherol): higher mortality
- decrease incidence of lung cancer (lung cancer [1]; participants with highest blood levels vs quartile with lowest levels): 19%

Compound: CC(=O)Oc1ccccc1C(=O)O [aspirin, acetylsalicylic acid]
- risk of total, breast, colorectal, or other site-specific cancers [2]: does not lower risk

Compound: [Cu] [copper, Copper]
- trend of lung cancer with supplementation / dietary intake (lung cancer [3]): protective trend

Compound: [Se] [selenium, Selenium]
- trend of lung cancer with supplementation / dietary intake (lung cancer [3]): significant inverse trend
- hazard ratio (lung cancer) (lung cancer [4]): 0.56

Compound: [Zn] [zinc, Zinc]
- trend of lung cancer with supplementation / dietary intake (lung cancer [3]): significant chemoprotective trend
